From the OligoGym collection
“And” between values parts separate entries of the source, which are not always exact repeats. Equal entries are not always repeated. After the bases stand the sugars from the 5' end (letter, count) and the backbone: PS all phosphorothioate, else s phosphorothioate and o phosphodiester by linkage. HELM strings list units from the 5' end as sugar, base in round brackets, then linkage (d deoxyribose, r ribose, m 2'-O-methyl, p phosphodiester). Methylation of C is not given here. [moe] = 2'-O-(2-methoxyethyl) (MOE); [cEt] = constrained ethyl (cEt); [sp] = phosphorothioate linkage; e = 2'-O-(2-methoxyethyl) (MOE); d = 2'-deoxy (DNA)

Key:
HBV = details: ASO
DGAT2 = details: ASO

RNA1{[moe](A)[sp].[cEt](A)[sp].[cEt](G)[sp].d(A)[sp].d(T)[sp].d(G)[sp].d(A)[sp].d(G)[sp].d(G)[sp].d(C)[sp].d(A)[sp].d(T)[sp].d(A)[sp].[cEt](G)[sp].[cEt](C)[sp].[moe](A)}$$$$V2.0
target mRNA inhibition (HBV; HepG2, 0.07 µM): 64% and 62%

RNA1{[moe](A)[sp].[cEt](A)[sp].[cEt](T)[sp].d(T)[sp].d(T)[sp].d(A)[sp].d(T)[sp].d(G)[sp].d(C)[sp].d(C)[sp].d(T)[sp].d(A)[sp].d(C)[sp].[cEt](A)[sp].[cEt](G)[sp].[moe](C)}$$$$V2.0
target mRNA inhibition (HBV; HepG2, 0.07 µM): 70% and 73%

RNA1{[moe](A)[sp].[cEt](A)[sp].[moe](G)[sp].[cEt](C)[sp].d(G)[sp].[cEt](A)[sp].d(A)[sp].d(G)[sp].d(T)[sp].d(G)[sp].d(C)[sp].d(A)[sp].d(C)[sp].[moe](A)[sp].[moe](C)[sp].[moe](G)[sp].[moe](G)}$$$$V2.0
target mRNA inhibition (HBV; HepG2, 0.009375 µM): 31% | target mRNA inhibition (HBV; HepG2, 0.01875 µM): 28% | target mRNA inhibition (HBV; HepG2, 0.0375 µM): 48% | target mRNA inhibition (HBV; HepG2, 0.075 µM): 61% | target mRNA inhibition (HBV; HepG2, 0.15 µM): 80% | target mRNA inhibition (HBV; HepG2, 0.3 µM): 90%

RNA1{[moe](A)[sp].[cEt](C)[sp].[cEt](A)[sp].d(G)[sp].d(C)[sp].d(T)[sp].d(T)[sp].d(G)[sp].d(G)[sp].d(A)[sp].d(G)[sp].d(G)[sp].d(C)[sp].[cEt](T)[sp].[cEt](T)[sp].[moe](G)}$$$$V2.0
target mRNA inhibition (HBV; HepG2, 0.07 µM): 10% and 0%

RNA1{[moe](A)[sp].[cEt](C)[sp].[cEt](G)[sp].d(G)[sp].d(G)[sp].d(C)[sp].d(A)[sp].d(A)[sp].d(C)[sp].d(A)[sp].d(T)[sp].d(A)[sp].d(C)[sp].[cEt](C)[sp].[cEt](T)[sp].[moe](T)}$$$$V2.0
target mRNA inhibition (HBV; HepG2, 0.0092593 µM): 38% | target mRNA inhibition (HBV; HepG2, 0.0277778 µM): 73% | target mRNA inhibition (HBV; HepG2, 0.07 µM): 63% and 88% | target mRNA inhibition (HBV; HepG2, 0.0833333 µM): 87% | target mRNA inhibition (HBV; HepG2, 0.25 µM): 92%

RNA1{[moe](A)[sp].[cEt](C)[sp].d(T)[sp].d(G)[sp].d(G)[sp].d(A)[sp].d(G)[sp].d(C)[sp].d(C)[sp].d(A)[sp].d(C)[sp].d(C)[sp].[cEt](A)[sp].[moe](G)[sp].[cEt](C)[sp].[moe](A)}$$$$V2.0
target mRNA inhibition (HBV; HepG2, 0.07 µM): 67% and 55%

RNA1{[moe](A)[sp].[cEt](G)[sp].[cEt](A)[sp].d(T)[sp].d(G)[sp].d(A)[sp].d(G)[sp].d(G)[sp].d(C)[sp].d(A)[sp].d(T)[sp].d(A)[sp].d(G)[sp].[cEt](C)[sp].[cEt](A)[sp].[moe](G)}$$$$V2.0
target mRNA inhibition (HBV; HepG2, 0.07 µM): 59% and 56%

RNA1{[moe](A)[sp].[cEt](G)[sp].[cEt](C)[sp].d(G)[sp].d(A)[sp].d(A)[sp].d(G)[sp].d(T)[sp].d(G)[sp].d(C)[sp].d(A)[sp].d(C)[sp].d(A)[sp].[cEt](C)[sp].[cEt](G)[sp].[moe](G)}$$$$V2.0
target mRNA inhibition (HBV; HepG2, 0.0092593 µM): 19% | target mRNA inhibition (HBV; HepG2, 0.0277778 µM): 52% | target mRNA inhibition (HBV; HepG2, 0.07 µM): 83% and 82% | target mRNA inhibition (HBV; HepG2, 0.0833333 µM): 86% | target mRNA inhibition (HBV; HepG2, 0.25 µM): 93%

RNA1{[moe](A)[sp].[cEt](G)[sp].[cEt](C)[sp].d(T)[sp].d(T)[sp].d(G)[sp].d(G)[sp].d(A)[sp].d(G)[sp].d(G)[sp].d(C)[sp].d(T)[sp].d(T)[sp].[cEt](G)[sp].[cEt](A)[sp].[moe](A)}$$$$V2.0
target mRNA inhibition (HBV; HepG2, 0.07 µM): 5% and 0%

TTGCAATGTTGCCATCATAC (sugars e5 d10 e5, PS)
target mRNA inhibition (DGAT2; HepG2, 10 µM): 96% and 94%

TTGCCACTCCCATTCTTTGA (sugars e5 d10 e5, PS)
target mRNA inhibition (DGAT2; HepG2, 0.12 µM): 39% and 57%

TTGCTTAAACAGATAAGCAC (sugars e5 d10 e5, PS)
target mRNA inhibition (DGAT2; HepG2, 0.12 µM): 17%

TTGGAGTAGGGCACCAGCCC (sugars e5 d10 e5, PS)
target mRNA inhibition (DGAT2; HepG2, 0.12 µM): 16%

TTGTGTGTCTTCACCAGCTG (sugars e2 d13 e5, PS)
target mRNA inhibition (DGAT2; HepG2, 0.12 µM): 71%

TTTCCATTTTTTACCCAACC (sugars e5 d10 e5, PS)
target mRNA inhibition (DGAT2; HepG2, 2.5 µM): 54% | target mRNA inhibition (DGAT2; HepG2, 10 µM): 90%

TTTCCTTCTTAAAAAAGACC (sugars e5 d10 e5, PS)
target mRNA inhibition (DGAT2; HepG2, 0.12 µM): 9%

TTTCCTTTGAAATCCAATGC (sugars e5 d10 e5, PS)
target mRNA inhibition (DGAT2; HepG2, 2.5 µM): 69% | target mRNA inhibition (DGAT2; HepG2, 10 µM): 90%

TTTGGATAGTCGATTTACCA (sugars e5 d10 e5, PS)
target mRNA inhibition (DGAT2; HepG2, 0.12 µM): 41%
